Reference: US9592272B2, “Treatment of osteoarthritis with incretin hormones or analogues thereof” (UNIVERSITE PIERRE ET MARIE CURIE (PARIS 6), priority 2012, dated 2017)

Columns and labels:
[1] = clinical trials (Krzeski et al., 2007); cited from earlier work
[2] = tested on: MMP-3, MMP-9 and MMP-13 expression in chondrocytes; test: Expression of MMP-3, MMP-9 and MMP-13 in primary chondrocytes in response to IL-1β (real-time quantitative RT-PCR); assay type: cell-based, murine; conditions: peptide 10 nM; IL-1β 0.1 or 1 ng/ml, 24 h; FIG. 1
Method: (§1) The murine chondrocytes were obtained after enzymatic digestion of femoral heads and knees of 4- to 6-day-old mice. The cells were amplified in a monolayer for 1 week (Gosset et al., 2008).
(§2) The cultures were deprived in a serum-free culture medium for 24 h before treatment.
(§3) The RNAs were extracted using the RNeasy Mini kit (Qiagen) and then reverse-transcribed using the Omniscript kit (Qiagen). The expression level of the genes of interest was quantified by real-time PCR (Light Cycler LC480), relative to the HPRT reference gene, using the following primers: […]

[3] = tested on: MMP-3, MMP-9 and MMP-13 expression in osteoblasts; test: Expression of MMP-3, MMP-9 and MMP-13 in primary osteoblasts in response to IL-1β (real-time quantitative RT-PCR); assay type: cell-based, murine; conditions: peptide 10 nM, IL-1β 0.1 or 1 ng/ml, 24 h; for overexpression of the prodegradative enzymes MMP-3 and MMP-13 in the osteoblasts in response to an IL-1β treatment: FIGS. 2A, B and C
Method: The murine osteoblasts were obtained after enzymatic digestion of the skulls of 4- to 6-day-old mice. The cells were amplified for 3 weeks, in the presence of ascorbic acid and β-glycerophosphate. The osteoblasts at the end of culture formed a three-dimensional membrane (Sanchez et al., 2009).
as §2, §3

[4] = in vivo, iv; cited from earlier work
[5] = tested on: prostaglandin E2 (PGE2) release by chondrocytes; test: Prostaglandin E2 release by chondrocytes in response to IL-1β (EIA on culture supernatants); assay type: cell-based, murine
Method: as §1, §2
The amount of PGE2 produced by the cells was measured by means of the prostaglandin E2 monoclonal EIA kit (Cayman) using the culture supernatants.

| Compound | toxicity revealed during clinical trials [1] | overexpression of the prodegradative enzymes MMP-3, MMP-9 and/or MMP-13 in the chondrocytes in response to an IL-1β treatment [2] | overexpression of the prodegradative enzymes MMP-3 and MMP-13 in the osteoblasts in response to an IL-1β treatment [3] | half-life time [4] | release of prostaglandin E2 (PGE2) by the chondrocytes in response to an IL-1β treatment ([5]; peptide 10 nM, IL-1β 1 ng/ml, 24 h, FIG. 3) | induction of PGE2 by peptide alone, chondrocytes ([5]; peptide alone, without IL-1β) | overexpression of MMP-9 in the osteoblasts in response to an IL-1β treatment ([3]; FIG. 2D) |
| --- | --- | --- | --- | --- | --- | --- | --- |
| COc1ccc(C(=O)Nc2ccc(S(=O)(=O)NC(CC#CCN3CCOCC3)C(=O)O)cc2)cc1 (centres unmarked) [PG-116800] | musculoskeletal toxicity | – | – | – | – | – | – |
| GIP (1-42) | – | inhibits | inhibits | approximately 2 minutes | – | – | – |
| GLP-1 (7-36) amide | – | inhibits | inhibits | – | inhibits | does not induce | inhibits |
| GLP-1 (7-37) | – | inhibits | inhibits | – | – | – | – |
